The results in this text go back to a melting point compilation (Tetko et al.; mined from patent text by program, amines drawn as free bases though some values may be those of a salt).

The structures appear in SMILES notation.

Molecule `O=C(CC(=O)C1CCCCC1)C1CCCCC1` showed a melting point of 50 to 52 °C. The molecule `Cc1noc(NC(=O)N2CCN(c3cc(-c4ccc(F)cc4F)ncn3)CC2)c1C` came in with a melting point of 198 to 199 °C. As for `CC(C)C[C@H](NC(=O)OCC1CCCCC1)C(=O)N[C@@H](C(C)C)[C@@H](O)c1c(-c2ccc(F)cc2)c1=O`, the melting point was 86 to 90 °C. Consider `Cc1nn(-c2ccccn2)c2[nH]c3cc(F)c(F)cc3c(=O)c12`, for which the melting point was in the range of 274 to 277 °C. As for `CC1=CC(OC(=O)C=Cc2ccc(N)cc2)C(O)C(C)(C)CC1=O` (centres undefined), the melting point was 72 to 74 °C. Then `CCC12CCC3c4ccc(OC)cc4C(C)CC3C1CCC2=O` (centres undefined), with 115 to 123 °C; and `CC(C)(C)OC(=O)NCc1cccc(Cn2ccc(OCc3ccc(F)cc3F)c(Br)c2=O)c1`, with 80 to 84 °C. For the molecule `CC(C)COc1cc(N(C)C)ccc1C(=O)c1ccccc1C(=O)O`, the melting point lay in the range of 199 to 201 °C. `Nc1ncnc2c1nc(SCC(O)COc1ccccc1)n2C1OC(CO)C(O)C1O` (centres undefined): the melting point is 100 to 110 °C. The molecule `O=C1c2ccc([N+](=O)[O-])cc2C(=O)N1CCc1ccccc1` yielded a melting point of 142 to 143 °C. Regarding `CC#CCOc1cc(Oc2c(F)cccc2F)ncn1`, the melting point stood at 79.8 °C. For the molecule `CCCCc1nn(-c2cc(NC(=O)CC)ccc2C(F)(F)F)c(=O)n1Cc1ccc(-c2ccccc2S(=O)(=O)NC(=O)OC(C)(C)C)cc1`, the melting point is 158 to 161 °C.

For the molecule `CCc1cc2c(s1)-n1c(C3CCCCC3)nnc1C(NC(=O)Nc1ccc(OC)cc1)N=C2c1ccccc1Cl` (centres undefined), the melting point is 268 to 269 °C. As to `Cc1nc(Cl)c2c(n1)CN=C(c1ccccc1)c1cc(Cl)ccc1-2`, the melting point was 190 to 192 °C. Molecule `O=C(c1ccc(OC2CCOCC2)cc1)c1ccc([N+](=O)[O-])cc1` displayed a melting point of 105 to 106 °C. `O=C(CSc1nc[nH]n1)NC/C=C\COc1cc(CN2CCCCC2)ccn1` showed a melting point of 65 to 67 °C. For `CC(=O)c1ccc(F)c(N(C)C(C)=O)c1`, the melting point was in the range of 75.5 to 76.5 °C. The molecule `Nc1ccn(C2CCCCC2)c(=O)n1` yielded a melting point of 213 to 231 °C.

Consider `O=C1CCc2cc(Cl)cc(Cl)c21`, for which the melting point is 119 to 120 °C.

As to `Cc1cc(N2CCN(CC3CC3)C2=O)sc1C(=O)NCc1cccnc1`, the melting point is 157 to 159 °C. `CCCCCCCCCCCCNC(=O)c1cc(-c2cccc(C(F)(F)F)c2)c(OCCO)c(-c2cccc(C(F)(F)F)c2)c1` returned a melting point of 154 to 158 °C. The molecule `CCCCc1nc2c(N)nc3ccccc3c2n1CC1(O)CCOCC1` yielded a melting point of 235 to 236 °C. The molecule `CCCCCCCCCC(=O)c1ccc(O)c(C(=O)O)c1` had a melting point of 118 to 119 °C. Take `CCCC1(CC(=O)O)OC=CC2=C1NC1=C3CCCCC3CCC21` (centres undefined): the melting point fell in the range of 78 to 80 °C. `CN(CCO)C(=O)Nc1ccc2c(c1Cl)C(c1ccccc1F)=NCC(=O)N2C` displayed a melting point of 218 to 220 °C. Then `Cc1c(NC(=O)CC(C)(C)C)cc2c(c1C)OC(C)(C)C2(O)c1cccc(CO)c1` (centres undefined), with 169 to 171 °C; and `C=C(C)COc1ccc(C(=O)C=Cc2ccc(N(C)C)cc2)c(O)c1`, with 85 to 87 °C. Molecule `CCN(CC)c1c(C(=O)O)n(-c2ccccc2)c2ccc(OC)cc12` showed a melting point of 141 to 143 °C.

As to `CNc1nc(Cl)ccc1[N+](=O)[O-]`, the melting point came to 114 °C. Then `Cc1cc(O)ccc1-n1cc(C(=O)O)c(=O)cc1C1CCCCCCC1`, with 118 to 120 °C. `CC(C)(C)OC(=O)N[C@@H](COS(C)(=O)=O)c1ccccc1` had a melting point of 108 to 109 °C.

In turn, `COc1cccc(-c2ccc(N3CCCN(c4ccc(-c5cccc(OC)c5)cn4)CC3)nc2)c1` had a melting point of 146 to 149 °C. Take `COP1(=S)OCc2cc(C)cnc2O1` (centres undefined): the melting point fell in the range of 74 to 75 °C. `CCOC(=O)c1cc([N+](=O)[O-])ccc1F`: the melting point lay within 53 to 54 °C. Then `COc1ccc(C)c(O)c1`, with 34 to 35 °C; and `Oc1c2c(nn1-c1nc3ccccc3s1)CCc1ccccc1-2`, with 234 to 235 °C.

Regarding `Cc1ccc(NCc2c(F)c(F)c(C(F)(F)F)c(F)c2F)cc1C(=O)O`, the melting point was determined as 84 °C. Then `CN(C)c1ccc(CC(=O)Nc2cc(CC3SC(=O)NC3=O)ccc2O)cc1` (centres undefined), with 216 to 218 °C. For the molecule `COc1cccc2c1C(C)N1CC(=O)NC1=N2` (centres undefined), the melting point turned out to be 250 °C. In the case of `COc1ccc(C(=O)Nc2nc(-c3ccco3)c(-c3ccncc3)s2)cc1`, the melting point lay within 235 to 245 °C. The value for `COc1cccc(COc2ccc(N)nn2)c1OC` was 103 to 106 °C; that for `O=C1CCCc2c1c1cc(F)ccc1n2Cc1ccc(F)cc1` was 182 to 183 °C; that for `CC(C)(C)c1ccc(SC(CCl)S(=O)(=O)c2ccccc2)cc1` (centres undefined) was 67 to 69 °C. The molecule `CC(C)Oc1ccc2c(c1)N(CCCN1CCC(CCO)CC1)c1cccc(S(C)(=O)=O)c1S2` registered a melting point of 50 °C. For the molecule `CCOC=Cc1ncnc2c1ncn2Cc1ccccc1`, the melting point lay in the range of 114 to 115 °C.

Regarding `CCOC(=O)C(Cl)=Cc1ccc([N+](=O)[O-])cc1`, the melting point was in the range of 108 to 110 °C. The value for `O=C(O)c1ccc(COCc2csc3nc(C(=O)NCCc4ccccc4)[nH]c(=O)c23)cc1` was 227 to 229 °C; that for `O=C(O)CCc1cn(-c2cccnc2)c2ccccc12` was 147 to 149 °C; that for `Cn1nc(-c2ccc(Br)cc2)c2ccccc2c1=O` was 168 to 170 °C. `CC(=O)OC1CSC(Oc2cnccc2-c2cccnc2)C(OC(C)=O)C1OC(C)=O` (centres undefined) returned a melting point of 159 °C.

`CCCCn1c(=O)n(CCC)c(=O)c2c(NC(C)=O)n[nH]c21` showed a melting point of 156 to 158 °C.

For the molecule `O=C(NCC1CCN(CC2(C(=O)O)CCCCC2)CC1)N1C(=O)C2(CCCC2)c2ccccc21`, the melting point was 160 °C. The molecule `Cn1c(CON)ncc(O)c1=O` gave a melting point of 106 °C.

`CC(C)(C)c1cc(C=C2SCN(CC(N)=O)C2=O)cc(C(C)(C)C)c1O` registered a melting point of 232 °C. In the case of `CCc1oc2ccccc2c1C(=O)N(Cc1ccccc1)Cc1ccc2c(Br)c(O)ccc2c1`, the melting point fell in the range of 125 to 130 °C. `NC(=O)CON=C(c1ccc(Cl)cc1)c1ccc(Cl)cc1`: the melting point lay within 141 to 142 °C. Regarding `COCCCCC(=O)c1ccc([N+](=O)[O-])c(Cl)c1`, the melting point lay within 54.5 to 56 °C. `CCN(CC)CC1CCCCN1CC(=O)N1c2ccc(C)cc2C(=O)Nc2cccnc21` (centres undefined) showed a melting point of 173 to 174 °C. In the case of `COc1ccc(CNc2nc(-c3ccccc3)c(-c3ccc(=O)n(C(C)C)n3)nc2C(=O)O)cc1`, the melting point was 216 to 217 °C.

The molecule `CCn1c(=O)c2[nH]c(/C=C/c3ccc(O)cc3)nc2n(CC)c1=O` had a melting point greater than 270 °C.

Regarding `O=C(NCc1ccncc1)c1cc2ccnc(Cl)c2[nH]1`, the melting point is greater than 340 °C. `Clc1cccc(-c2nc(-c3ccccn3)no2)c1` displayed a melting point of 136 to 140 °C.

`Clc1ccccc1-c1nn2cc(-c3ccccc3)nc2s1` registered a melting point of 126 °C. In turn, `CN(C)CC#Cc1cnc2c(c1)N(Cc1cc(Cl)ccc1Cl)CCN2` gave a melting point of 168 °C.

For the molecule `COC1(OC)CCC(O)(c2ccc(C)cc2)CC1`, the melting point is 93 to 97 °C. As to `CCC(C)Cc1c(-c2ccc([N+](=O)[O-])cc2Cl)c(C)nc2ncnn12` (centres undefined), the melting point is 158 to 162 °C. For the molecule `CN(CC(=O)Nc1ccccc1N)C(=O)OC(C)(C)C`, the melting point fell in the range of 134 to 136 °C. The molecule `COc1nc2ccc(Br)cc2cc1C#N` gave a melting point of 169 to 172 °C. The molecule `COc1cn(-c2ccc(N(N)C(=O)OC(C)(C)C)cc2F)nc(-c2ccnn2-c2ccccc2)c1=O` came in with a melting point of 163 to 165 °C. As to `CC1(C)NC2(CCCCC2)NC1(C)C`, the melting point lay within 31 to 32 °C.

In the case of `COc1ccc(CCCc2ccc(O)cc2)c(O)c1`, the melting point lay in the range of 95 to 96 °C. `CCOC(=O)c1cn2c3c(cc(CN4CCOCC4)cc3c1=O)OC(c1ccccc1)C2` (centres undefined) had a melting point of 213 to 215 °C.

`O=C(O)COc1cccc(Cn2cc(C3c4ccccc4C=Cc4ccccc43)c(=S)[nH]c2=O)c1` had a melting point of 148 to 155 °C. In turn, `COc1cc(C(=O)O)ccc1Cc1c(Cl)n(C)c2cc(Cl)c(CC(C)NC(=O)N(C)C)cc12` (centres undefined) registered a melting point of 125 to 135 °C. `CC(=O)OCC(=O)C1(O)C(C)CC2C3CCC4=CC(=O)C=CC4(C)C34OC4CC21C` (centres undefined): the melting point is 180 to 186 °C.

With `CCCCn1c(=O)c2c(ncn2S(=O)(=O)Cc2ccccc2)n(CCCC)c1=O`, the melting point lay in the range of 117 to 118 °C. In turn, `C=C(C)Cc1c(C)c(NC(C)=O)cc(C)c1O` yielded a melting point of 183 to 185 °C. For `CS(=O)(=O)c1cccnc1Oc1ccc(Cl)c(Cl)c1`, the melting point fell in the range of 95 to 96 °C.

For the molecule `CC1(C)C(C(=O)O)C1C(O)C(F)(Cl)Cl` (centres undefined), the melting point came out at 142 °C.

Molecule `CC(C)(C)OC(=O)NN(Cc1ccc(Cl)cc1)C(=O)OCC1c2ccccc2-c2ccccc21` showed a melting point of 53 to 55 °C.

For `O=C1CN(c2cccc(Cl)c2)C(=O)N1S(=O)(=O)c1ccc2ccccc2c1`, the melting point was in the range of 194 to 198 °C. Molecule `O=c1[nH]c(=O)n(C2CC(OCc3ccc(F)cc3)C(CO)O2)cc1F` (centres undefined) showed a melting point of 130 to 131 °C. Then `COC(=O)C1=Cc2cc(OCc3ccc(F)cc3)ccc2S(=O)(=O)CC1`, with 141 to 143 °C; and `COc1ccc(S(=O)(=O)Nc2cccnc2Nc2ccc(C(=O)O)cc2)cc1`, with 248 to 250 °C; and `O=C1NCc2c1ccc(Nc1ccccc1)c2Nc1ccccc1`, with 225 °C. In the case of `O=C(Nc1cccc(-c2c(-c3ccccc3)cnc3c(C(F)(F)F)cccc23)c1)Nc1ccccc1Cl`, the melting point was in the range of 192 to 195 °C. The value for `C=C(C)C(=O)c1cn2c(C)c(CC)c(SC)nc2n1` was 136 to 137 °C. The value for `Cc1ccc(-c2ccc(Cl)cc2Cl)c(=O)[nH]1` was 266 to 268 °C; that for `O=C1OCCN1CCN1C(=O)C2(COc3cc4c(cc32)CCO4)c2ccccc21` (centres undefined) was 185 to 186 °C.
